Results as given in patent US20250215013A1, “SUBSTITUTED TRICYCLIC COMPOUNDS AS PARP INHIBITORS AND THE USE THEREOF” (IMPACT THERAPEUTICS (SHANGHAI), INC., priority 2022, published 2025).

Assays:
[1] = target: recombinant poly(ADP-ribose) polymerase 1 (PARP1) (Homo sapiens (Human), UniProt P09874)
[2] = tested on: MDA-MB-436 cells; assay: Growth inhibition assay against BRCA mutant human breast cancer MDA-MB-436 cell line (CCK-8); type: cell-based; conditions: proliferation of MDA-MB-436 cells, 7 days
[3] = target: recombinant poly(ADP-ribose) polymerase 2 (PARP2); assay: PARP2 chemiluminescent assay; type: biochemical; conditions: inhibition of PARP2 enzyme activity, chemiluminescence

recombinant poly(ADP-ribose) polymerase 1 (PARP1), sequence (P09874 whole entry): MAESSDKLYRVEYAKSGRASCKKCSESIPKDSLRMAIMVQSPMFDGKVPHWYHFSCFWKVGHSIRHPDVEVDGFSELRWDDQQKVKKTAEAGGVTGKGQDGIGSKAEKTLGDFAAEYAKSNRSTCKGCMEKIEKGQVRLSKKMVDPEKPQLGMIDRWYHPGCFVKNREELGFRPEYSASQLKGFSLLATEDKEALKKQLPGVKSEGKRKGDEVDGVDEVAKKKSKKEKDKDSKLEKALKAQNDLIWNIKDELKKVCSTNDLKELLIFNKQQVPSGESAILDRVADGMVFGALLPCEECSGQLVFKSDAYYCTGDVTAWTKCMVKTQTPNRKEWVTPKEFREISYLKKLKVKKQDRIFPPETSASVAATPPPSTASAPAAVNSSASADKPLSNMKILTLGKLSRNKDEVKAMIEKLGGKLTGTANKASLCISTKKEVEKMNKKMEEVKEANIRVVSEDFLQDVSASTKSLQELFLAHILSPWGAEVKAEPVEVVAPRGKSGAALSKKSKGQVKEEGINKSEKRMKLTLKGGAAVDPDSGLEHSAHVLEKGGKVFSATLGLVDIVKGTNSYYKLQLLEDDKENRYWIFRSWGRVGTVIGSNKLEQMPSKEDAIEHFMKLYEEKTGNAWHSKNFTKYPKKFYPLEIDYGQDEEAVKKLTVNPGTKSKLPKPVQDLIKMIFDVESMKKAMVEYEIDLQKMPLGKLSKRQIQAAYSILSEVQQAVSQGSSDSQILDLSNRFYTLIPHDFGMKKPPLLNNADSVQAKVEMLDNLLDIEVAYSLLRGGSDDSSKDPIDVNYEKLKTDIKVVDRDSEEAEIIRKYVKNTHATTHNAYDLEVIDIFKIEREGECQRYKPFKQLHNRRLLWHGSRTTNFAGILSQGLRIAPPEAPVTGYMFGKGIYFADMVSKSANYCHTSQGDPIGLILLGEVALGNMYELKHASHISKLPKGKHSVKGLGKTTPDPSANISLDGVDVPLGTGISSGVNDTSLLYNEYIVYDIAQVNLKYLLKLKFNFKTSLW

Row | Compound | IC50 [1] [µM] | IC50 ([2]; Homo sapiens, MDA-MB-436, […]) [µM] | IC50 [3] [nM] | IC50 [2] [µM]
1 | CNC(=O)c1ccc(N2CCN(Cc3ccc4c(c3)[nH]c(=O)c3nc[nH]c34)CC2)c(C)n1 [Example 25, 7-((4-(2-methyl-6-(methylcarbamoyl)pyridin-3-yl)piperazin-1-yl)methyl)-1,5-dihydro-4H-imidazo[4,5-c]quinolin-4-one] | 0.00339 | 0.0618 | 2490 | 
2 | CNC(=O)c1ccc(N2CCN(Cc3ccc4c(c3)[nH]c(=O)c3ncn(C)c34)CC2)c(C)n1 [Example 26, 7-((4-(2-methyl-6-(methylcarbamoyl)pyridin-3-yl)piperazin-1-yl)methyl)-1-methyl-1,5-dihydro-4H-imidazo[4,5-c]quinolin-4-one] | 0.00443 | > 0.1 | 2420 | 
3 | CNC(=O)c1ccc(N2CCN(Cc3ccc4c(c3)[nH]c(=O)c3c4ncn3C)CC2)c(C)n1 [Example 28, 7-((4-(2-methyl-6-(methylcarbamoyl)pyridin-3-yl)piperazin-1-yl)methyl)-3-methyl-3,5-dihydro-4H-imidazo[4,5-c]quinolin-4-one] | 0.00242 | 0.0194 | 2060 | 
4 | CNC(=O)c1ccc(N2CCN(Cc3ccc4c(c3)[nH]c(=O)c3oncc34)CC2)c(C)n1 [Example 30, 7-((4-(2-methyl-6-(methylcarbamoyl)pyridin-3-yl)piperazin-1-yl)methyl)isoxazolo[5,4-c]quinolin-4(5H)-one] | 0.138 | > 0.1 | > 10000 | 
5 | CNC(=O)c1ccc(N2CCN(Cc3ccc4c(c3)[nH]c(=O)c3c[nH]cc34)CC2)c(C)n1 [Example 34, 7-((4-(2-methyl-6-(methylcarbamoyl)pyridin-3-yl)piperazin-1-yl)methyl)-2,5-dihydro-4H-pyrrolo[3,4-c]quinolin-4-one] | 0.00252 | 0.00506 | 709 | 
6 | CNC(=O)c1ccc(N2CCN(Cc3ccc4c(c3)[nH]c(=O)c3cn(C)cc34)CC2)c(C)n1 [Example 35, 7-((4-(2-methyl-6-(methylcarbamoyl)pyridin-3-yl)piperazin-1-yl)methyl)-2-methyl-2,5-dihydro-4H-pyrrolo[3,4-c]quinolin-4-one] | 0.00292 | 0.00824 | 584 | 
7 | CNC(=O)c1ccc(N2CCN(Cc3ccc4c([nH]c(=O)c5cn[nH]c54)c3F)CC2)c(C)n1 [Example 45, 7-((4-(2-methyl-6-(methylcarbamoyl)pyridin-3-yl)piperazin-1-yl)methyl)-6-fluoro-1,5-dihydro-4H-pyrazolo[4,3-c]quinolin-4-one] | 0.00064 | 0.00902 | 278 | 
8 | CNC(=O)c1ccc(N2CCN(Cc3ccc4c(c3)[nH]c(=O)c3c(C)noc34)CC2)c(C)n1 [Example 47, 7-((4-(2-methyl-6-(methylcarbamoyl)pyridin-3-yl)piperazin-1-yl)methyl)-3-methylisoxazolo[4,5-c]quinolin-4(5H)-one] | 0.00086 | 0.0122 | 504 | 
9 | CNC(=O)c1ccc(N2CCN(Cc3ccc4c(c3)[nH]c(=O)c3c(F)c(C)nn34)CC2)c(C)n1 [Example 51, 7-((4-(2-methyl-6-(methylcarbamoyl)pyridin-3-yl)piperazin-1-yl)methyl)-3-fluoro-2-methylpyrazolo[1,5-a]quinoxalin-4(5H)-one] | 0.0009 | 0.00845 | 30.6 | 
10 | CNC(=O)c1ccc(N2CCN(Cc3cc(F)c4c(c3)[nH]c(=O)c3cncn34)CC2)c(F)n1 [Example 53, 7-((4-(2-fluoro-6-(methylcarbamoyl)pyridin-3-yl)piperazin-1-yl)methyl)-9-fluoroimidazo[1,5-a]quinoxalin-4(5H)-one] | 0.00025 | 0.00201 | 469 | 
11 | CNC(=O)c1ccc(N2CCN(Cc3cc(F)c4c(c3)[nH]c(=O)c3cncn34)CC2)c(Cl)n1 [Example 54, 7-((4-(2-chloro-6-(methylcarbamoyl)pyridin-3-yl)piperazin-1-yl)methyl)-9-fluoroimidazo[1,5-a]quinoxalin-4(5H)-one] | 0.00052 | 0.00585 | 648 | 
12 | CNC(=O)c1ccc(N2CCN(Cc3ccc4c([nH]c(=O)c5cncn54)c3F)CC2)c(F)n1 [Example 55, 7-((4-(2-fluoro-6-(methylcarbamoyl)pyridin-3-yl)piperazin-1-yl)methyl)-6-fluoroimidazo[1,5-a]quinoxalin-4(5H)-one] | 0.00047 | 0.014 | 776 | 
13 | CNC(=O)c1ccc(N2CCN(Cc3ccc4c([nH]c(=O)c5cncn54)c3F)CC2)c(Cl)n1 [Example 56, 7-((4-(2-chloro-6-(methylcarbamoyl)pyridin-3-yl)piperazin-1-yl)methyl)-6-fluoroimidazo[1,5-a]quinoxalin-4(5H)-one] | 0.00068 | 0.00408 | 1570 | 
14 | CNC(=O)c1ccc(N2CCN(Cc3ccc4c([nH]c(=O)n5ccnc45)c3F)CC2)c(F)n1 [Example 61, 8-((4-(2-fluoro-6-(methylcarbamoyl)pyridin-3-yl)piperazin-1-yl)methyl)-7-fluoroimidazo[1,2-c]quinazolin-5(6H)-one] | 0.00223 | 0.0174 | 7260 | 
15 | CCNC(=O)c1ccc(N2CCN(Cc3ccc4c([nH]c(=O)n5ccnc45)c3F)CC2)c(F)n1 [Example 62, 8-((4-(2-fluoro-6-(ethylcarbamoyl)pyridin-3-yl)piperazin-1-yl)methyl)-7-fluoroimidazo[1,2-c]quinazolin-5(6H)-one] | 0.00349 | 0.0467 | > 10000 | 
16 | CCNC(=O)c1ccc(N2CCN(Cc3ccc4c([nH]c(=O)n5ccnc45)c3F)CC2)c(C)n1 [Example 63, 8-((4-(2-methyl-6-(ethylcarbamoyl)pyridin-3-yl)piperazin-1-yl)methyl)-7-fluoroimidazo[1,2-c]quinazolin-5(6H)-one] | 0.00386 | 0.0537 | > 10000 | 
17 | O=C(NC1CC1)c1ccc(N2CCN(Cc3ccc4c([nH]c(=O)n5ccnc45)c3F)CC2)c(F)n1 [Example 64, 8-((4-(2-fluoro-6-(cyclopropylcarbamoyl)pyridin-3-yl)piperazin-1-yl)methyl)-7-fluoroimidazo[1,2-c]quinazolin-5(6H)-one] | 0.00273 | 0.0526 | 5450 | 
18 | Cc1nc(C(=O)NC2CC2)ccc1N1CCN(Cc2ccc3c([nH]c(=O)n4ccnc34)c2F)CC1 [Example 65, 8-((4-(2-methyl-6-(cyclopropylcarbamoyl)pyridin-3-yl)piperazin-1-yl)methyl)-7-fluoroimidazo[1,2-c]quinazolin-5(6H)-one] | 0.00453 | 0.0538 | > 10000 | 
19 | CNC(=O)c1ccc(N2CCN(Cc3ccc4c(c3)[nH]c(=O)c3nn(C)cc34)CC2)c(C)n1 [Example 69, 7-((4-(2-methyl-6-(methylcarbamoyl)pyridin-3-yl)piperazin-1-yl)methyl)-2-methyl-2,5-dihydro-4H-pyrazolo[3,4-c]quinolin-4-one] | 0.00077 | 0.00466 | 5780 | 
20 | CNC(=O)c1ccc(N2CCN(Cc3ccc4c(c3)[nH]c(=O)c3c4cnn3C)CC2)c(C)n1 [Example 71, 7-((4-(2-methyl-6-(methylcarbamoyl)pyridin-3-yl)piperazin-1-yl)methyl)-3-methyl-3,5-dihydro-4H-pyrazolo[3,4-c]quinolin-4-one] | 0.0033 | 0.011 | 636 | 
21 | CNC(=O)c1ccc(N2CCN(Cc3ccc4c([nH]c(=O)n5nccc45)c3F)CC2)c(C)n1 [Example 72, 8-((4-(2-methyl-6-(methylcarbamoyl)pyridin-3-yl)piperazin-1-yl)methyl)-7-fluoropyrazolo[1,5-c]quinazolin-5(6H)-one] | 0.00108 |  | 1830 | 0.029
22 | CNC(=O)c1ccc(N2CCN(Cc3ccc4c5c(c(=O)[nH]c4c3)CNC5)CC2)c(C)n1 [Example 74, 7-((4-(6-methylcarbamoyl-2-methylpyridin-3-yl)piperazin-1-yl)methyl)-1,2,3,5-tetrahydro-4H-pyrrolo[3,4-c]quinolin-4-one] | 0.00331 | 0.0582 | 2980 | 
23 | CNC(=O)c1ccc(N2CCN(Cc3ccc4c5c(c(=O)[nH]c4c3)CN(C)C5)CC2)c(C)n1 [Example 75, 7-((4-(6-methylcarbamoyl-2-methylpyridin-3-yl)piperazin-1-yl)methyl)-2-methyl-1,2,3,5-tetrahydro-4H-pyrrolo[3,4-c]quinolin-4-one] | 0.00838 | 0.0111 | 2380 | 
24 | CNC(=O)c1ccc(N2CCN(Cc3cc4[nH]c(=O)c5cn(C)nc5c4cc3F)CC2)c(C)n1 [Example 89, 7-((4-(2-methyl-6-(methylcarbamoyl)pyridin-3-yl)piperazin-1-yl)methyl)-8-fluoro-2-methyl-2,5-dihydro-4H-pyrazolo[4,3-c]quinolin-4-one] | 0.00581 | 0.0119 | 3410 | 
25 | CNC(=O)c1ccc(N2CCN(Cc3cc4[nH]c(=O)c5cn(C)nc5c4cc3F)CC2)c(F)n1 [Example 91, 7-((4-(2-fluoro-6-(methylcarbamoyl)pyridin-3-yl)piperazin-1-yl)methyl)-8-fluoro-2-methyl-2,5-dihydro-4H-pyrazolo[4,3-c]quinolin-4-one] | 0.00425 | 0.0208 | 942 | 
26 | CNC(=O)c1ccc(N2CCN(Cc3ccc4c(c3)[nH]c(=O)c3[nH]ccc34)CC2)c(F)n1 [Example 99, 7-((4-(2-fluoro-6-(methylcarbamoyl)pyridin-3-yl)piperazin-1-yl)methyl)-3,5-dihydro-4H-pyrrolo[2,3-c]quinolin-4-one] | 0.00594 | 0.0538 | > 10000 | 
27 | CNC(=O)c1ccc(N2CCN(Cc3ccc4c([nH]c(=O)c5occc54)c3C)CC2)c(F)n1 [Example 103, 7-((4-(2-fluoro-6-(methylcarbamoyl)pyridin-3-yl)piperazin-1-yl)methyl)-6-methylfuro[2,3-c]quinolin-4(5H)-one] | 0.00426 | 0.0124 | 667 | 
